Assay results as given in the NIST ThermoML archive (doi:10.1016/j.jct.2005.02.003).
Numbers after ± are expanded uncertainties.

Legend:
[1] = Crystal; Adiabatic calorimetry
[2] = Molar enthalpy of transition or fusion; conditions: Crystal; Adiabatic calorimetry

Triple point temperature [1]: 162.33 ± 0.05 K
Molar enthalpy of transition or fusion [2]: 2.067 ± 0.012 kcal/mol
Compound: CC(C)COC(C)(C)C [isobutyl tert-butyl ether]
